Data: patent publication US5672609A, “Pyridine compounds, intermediates compositions and methods of use” (Eli Lilly and Company, priority 1996, dated 1997)
Several values for one entry are separate records, joined by “and”; a condition that tells them apart may be missing. Identical values can stand only once.

Experiments:
[1] = tested on: Femur (distal metaphysis); experiment: Osteoporosis Test: distal femur metaphysis x-ray image / bone density (Table 2); format: in vivo, rats; conditions: for Femur (x-ray image) (% protect.): daily for 35 days, 6-month-old rats; for bone density, in words: ovariectomized rats, oral, 35 days
Experimental: Following the General Preparation Procedure, infra, the rats were treated daily for 35 days (6 rats per treatment group) and sacrificed by carbon dioxide asphyxiation on the 36th day. The 35 day time period was sufficient to allow maximal reduction in bone density, measured as described herein. At the time of sacrifice, the uteri were removed, dissected free of extraneous tissue, and the fluid contents were expelled before determination of wet weight in order to confirm estrogen deficiency associated with complete ovariectomy. […] The right femurs were excised and digitilized x-rays generated and analyzed by an image analysis program (NIH image) at the distal metaphysis. The proximal aspect of the tibiae from these animals were also scanned by quantitative computed tomography. In accordance with the above procedures, the compound of Example 9 and ethynyl estradiol (EE2) in 20% hydroxypropyl β-cyclodextrin were orally administered to test animals. Distal femur metaphysis data presented in Tables 2 and 3 below are the results of compound treatments compared to intact and ovariectomized test animals. The rats in the Table 2 tests were 6 months of age rather than 75 days of age (at the beginning of the tests).

[2] = tested on: uterus; experiment: Osteoporosis Test: uterine weight (Table 2); format: in vivo; conditions: daily for 35 days, 6-month-old rats
Experimental: (§1) Following the General Preparation Procedure, infra, the rats were treated daily for 35 days (6 rats per treatment group) and sacrificed by carbon dioxide asphyxiation on the 36th day. The 35 day time period was sufficient to allow maximal reduction in bone density, measured as described herein. At the time of sacrifice, the uteri were removed, dissected free of extraneous tissue, and the fluid contents were expelled before determination of wet weight in order to confirm estrogen deficiency associated with complete ovariectomy. […] In accordance with the above procedures, the compound of Example 9 and ethynyl estradiol (EE2) in 20% hydroxypropyl β-cyclodextrin were orally administered to test animals. Distal femur metaphysis data presented in Tables 2 and 3 below are the results of compound treatments compared to intact and ovariectomized test animals. The rats in the Table 2 tests were 6 months of age rather than 75 days of age (at the beginning of the tests).

[3] = tested on: Serum cholesterol; experiment: Osteoporosis Test: serum cholesterol (Table 2); format: in vivo; conditions: daily for 35 days, 6-month-old rats
Experimental: (§2) Cholesterol Analysis. Blood samples were allowed to clot at room temperature for 2 hours, and serum was obtained following centrifugation for 10 minutes at 3000 rpm. Serum cholesterol was determined using a Boehringer Mannheim Diagnostics high performance cholesterol assay. Briefly the cholesterol was oxidized to cholest-4-en-3-one and hydrogen peroxide. The hydrogen peroxide was then reacted with phenol and 4-aminophenazone in the presence of peroxidase to produce a p-quinone imine dye, which was read spectrophotometrically at 500 nm. Cholesterol concentration was then calculated against a standard curve. The entire assay was automated using a Biomek Automated Workstation.
Following the General Preparation Procedure, infra, the rats were treated daily for 35 days (6 rats per treatment group) and sacrificed by carbon dioxide asphyxiation on the 36th day. The 35 day time period was sufficient to allow maximal reduction in bone density, measured as described herein. At the time of sacrifice, the uteri were removed, dissected free of extraneous tissue, and the fluid contents were expelled before determination of wet weight in order to confirm estrogen deficiency associated with complete ovariectomy.
In accordance with the above procedures, the compound of Example 9 and ethynyl estradiol (EE2) in 20% hydroxypropyl β-cyclodextrin were orally administered to test animals. Distal femur metaphysis data presented in Tables 2 and 3 below are the results of compound treatments compared to intact and ovariectomized test animals. The rats in the Table 2 tests were 6 months of age rather than 75 days of age (at the beginning of the tests).

[4] = tested on: Uterine Eosinophil Peroxidase (EPO); experiment: Uterine Eosinophil Peroxidase (EPO) Assay (Table 1); format: in vivo, female Sprague Dawley rats; set-up: key to Uterine EPO (V. max): Vmax of absorbance increase at 450 nm, monitored over 1 min; conditions: for Uterine EPO (V. max): OVX rats, daily for 4 days
Text: (§3) Seventy-five day old female Sprague Dawley rats (weight range of 200 to 225 g) were obtained from Charles River Laboratories (Portage, Mich.). The animals were either bilaterally ovariectomized (OVX) or exposed to a sham surgical procedure at Charles River Laboratories, and then shipped after one week. Upon arrival, they were housed in metal hanging cages in groups of 3 or 4 per cage and had ad libitum access to food (calcium content approximately 0.5%) and water for one week. Room temperature was maintained at 22.2° ±1.7° C. with a minimum relative humidity of 40%. The photoperiod in the room was 12 hours light and 12 hours dark.
(§4) Dosing Regimen Tissue Collection. After a one week acclimation period (therefore, two weeks post-OVX) daily dosing with test compound was initiated. 17α-ethynyl estradiol or the test compound were given orally, unless otherwise stated, as a suspension in 1% carboxymethylcellulose or dissolved in 20% cyclodextrin. Animals were dosed daily for 4 days. Following the dosing regimen, animals were weighed and anesthetized with a ketamine: Xylazine (2:1, V:V) mixture and a blood sample was collected by cardiac puncture. The animals were then sacrificed by asphyxiation with CO2, the uterus was removed through a midline incision, and a wet uterine weight was determined.
Uterine Eosinomhil Peroxidase (EPO) Assay. Uteri were kept at 4° C. until time of enzymatic analysis. The uteri were then homogenized in 50 volumes of 50 mM Tris buffer (pH-8.0) containing 0.005% Triton X-100. Upon addition of 0.01% hydrogen peroxide and 10 mM O-phenylenediamine (final concentrations) in Tris buffer, increase in absorbance was monitored for one minute at 450 nm. The presence of eosinophils in the uterus is an indication of estrogenic activity of a compound. The maximal velocity of a 15 second interval was determined over the initial, linear portion of the reaction curve.
As is expressed in the below data, estrogenicity also was assessed by evaluating the response of eosinophil infiltration into the uterus.
(§5) The data presented in Table 1 below reflects the response of 5 to 6 rats per treatment.

[5] = tested on: uterus; experiment: Uterine weight in ovariectomized rats, 4-day oral dosing (Table 1); format: in vivo, female Sprague Dawley rats; conditions: OVX rats; for change in vivo at 0.1 mg/kg / change in vivo at 10 mg/kg / change in vivo at 25 mg/kg / change in vivo at 1 mg/kg: Rattus norvegicus, po, 96 h, daily for 4 days, read-out: Uterine Wt. (% inc. vs. OVX); for change in vivo at 0.1 mg/kg: 0.1 mg/kg oral; for change in vivo at 10 mg/kg: 10 mg/kg oral; for change in vivo at 25 mg/kg: 25 mg/kg oral; for change in vivo at 1 mg/kg: 1 mg/kg oral
Experimental: In the examples illustrating the methods, a post-menopausal model was used in which effects of different treatments upon circulating lipids were determined.
as §3, §4
(§6) Data presented in Table 1 below show comparative results among ovariectomized rats, rats treated with 17α-ethynyl estradiol (EE2; an orally available form of estrogen), and rats treated with certain compounds of the present invention. […] This uterine response to estrogen is well recognized in the art.
as §5

[6] = tested on: Serum cholesterol; experiment: Serum cholesterol in ovariectomized rats, 4-day oral dosing (Table 1); format: in vivo, female Sprague Dawley rats; conditions: OVX rats; for inhibition in vivo at 0.1 mg/kg / inhibition in vivo at 1 mg/kg / inhibition in vivo at 25 mg/kg / ED50 / inhibition in vivo at 10 mg/kg: Rattus norvegicus, po, 96 h, daily for 4 days; for inhibition in vivo at 0.1 mg/kg: 0.1 mg/kg oral; for inhibition in vivo at 0.1 mg/kg / inhibition in vivo at 1 mg/kg / inhibition in vivo at 25 mg/kg / inhibition in vivo at 10 mg/kg: read-out: Serum Cholesterol (% dec. vs. OVX); for inhibition in vivo at 1 mg/kg: 1 mg/kg oral; for inhibition in vivo at 25 mg/kg: 25 mg/kg oral; for ED50: dose column in mg/kg, read-out: ED50 (effective dose to dec. serum chol. by 50%); for inhibition in vivo at 10 mg/kg: 10 mg/kg oral
Text: as §3, §4, §2, §6, §5

[7] = tested on: MCF-7 breast adenocarcinoma cells; experiment: MCF-7 Proliferation Assay; format: cell-based; conditions: Homo sapiens, MCF7, tritiated thymidine, 48 hours
Experimental: MCF-7 breast adenocarcinoma cells (ATCC HTB 22) were maintained in MEM (minimal essential medium, phenol red-free, Sigma, St. Louis, Mo.) supplemented with 10% fetal bovine serum (FBS) (V/V), L-glutamine (2 mM), sodium pyruvate (1 mM), HEPES {(N-[2-hydroxyethyl]piperazine-N'-[2-ethanesulfonic acid]10 mM}, non-essential amino acids and bovine insulin (1 ug/mL) (maintenance medium). Ten days prior to assay, MCF-7 cells were switched to maintenance medium supplemented with 10% dextran coated charcoal stripped fetal bovine serum (DCC-FBS) assay medium) in place of 10% FBS to deplete internal stores of steroids. MCF-7 cells were removed from maintenance flasks using cell dissociation medium (Ca++/Mg++free HBSS (phenol red-free) supplemented with 10 mM HEPES and 2 mM EDTA). Cells were washed twice with assay medium and adjusted to 80,000 cells/mL. Approximately 100 μL (8,000 cells) were added to flat-bottom microculture wells (Costar 3596) and incubated at 37° C. in a 5% CO2 humidified incubator for 48 hours to allow for cell adherence and equilibration after transfer. Serial dilutions of drugs or DMSO as a diluent control were prepared in assay medium and 50 μL transferred to triplicate microcultures followed by 50 μL assay medium for a final volume of 200μ. After an additional 48 hours at 37° C. in a 5% CO2 humidified incubator, microcultures were pulsed with tritiated thymidine (1 uCi/well) for 4 hours. Cultures were terminated by freezing at -70° C. for 24 hours followed by thawing and harvesting of microcultures using a Skatron Semiautomatic Cell Harvester. Samples were counted by liquid scintillation using a Wallac BetaPlace β counter. Results in Table 4 below show the IC50 for certain compounds of the present invention.

[8] = Osteoporosis Test: body weight change (Table 2); format: in vivo; conditions: daily for 35 days, 6-month-old rats
Experimental: as §1

SMILES	Femur (x-ray image) (% protect.) ([1]; 0.1 mg/kg oral)	bone density, in words [1]	Uterine Wt. (% inc. vs. OVX) ([2]; 0.1 mg/kg oral)	Serum Chol. (% dec. vs. OVX) ([3]; 0.1 mg/kg oral)	IC50 [7]	Uterine EPO (V. max) ([4]; 0.1 mg/kg oral)	Uterine EPO (V. max) ([4]; 25 mg/kg oral)	change in vivo at 0.1 mg/kg [5]	change in vivo at 10 mg/kg [5]	change in vivo at 25 mg/kg [5]	inhibition in vivo at 0.1 mg/kg [6]	inhibition in vivo at 1 mg/kg [6]	inhibition in vivo at 25 mg/kg [6]	ED50 ([6]; oral)	inhibition in vivo at 10 mg/kg [6]	change in vivo at 1 mg/kg [5]	other results
C#CC1(O)CCC2C3CCc4cc(O)ccc4C3CCC21C (stereo not drawn) [EE2, 17α-ethynyl estradiol, reference compound]	41.8% and 25.5%	prevented this loss	128.3% and 226.1%	73.8% and 73.6%													eosinophil infiltration into the uterus, in words ([4]; ovariectomized rats): caused a substantial, expected increase in eosinophil infiltration; uterine weight, in words ([5]; oral, EE2 at 0.1 mg/kg/day): uterine weight was substantially greater than the uterine weight of ovariectomized control animals; serum cholesterol, in words ([6]; oral, EE2 at 0.1 mg/kg/day): caused a decrease in serum cholesterol
COc1ccc(-c2ccc(-c3ccc(F)cc3)nc2-c2ccc(OCCN3CCCCC3)cc2)cc1 [Example 6, 2-[4-[2-(1-Piperidinyl)ethoxy]phenyl]-3-(4-methoxyphenyl)-6-(4-fluorophenyl)pyridine]					470 nM	6.6	22.6	9.5%	44.2%	69.5%	4%	12.3%	40.8%	70 mg/kg			
Cc1ccc(-c2ccc(O)cc2)c(-c2ccc(OCCN3CCCC3)cc2)n1 [Example 9, 2-[4-[2-(1-Pyrrolidinyl)ethoxy]phenyl]-3-(4-hydroxyphenyl)-6-methylpyridine]	-16.4%	elevated mean bone density in a general, dose-related manner	-11%	33.6%					26.3%	24.3%			58.5%		49.2%		Femur (x-ray image) (% protect.) ([1]; 0.01 mg/kg oral): -11.5%; Femur (x-ray image) (% protect.) ([1]; 25 mg/kg oral): 33.3%; Body Wt. Change (% dec. vs. OVX) ([8]; 0.01 mg/kg oral): -5%; Body Wt. Change (% dec. vs. OVX) ([8]; 0.1 mg/kg oral): -8.2%; Body Wt. Change (% dec. vs. OVX) ([8]; 25 mg/kg oral): 6.3%; Uterine Wt. (% inc. vs. OVX) ([2]; 0.01 mg/kg oral): -3.5%; Uterine Wt. (% inc. vs. OVX) ([2]; 25 mg/kg oral): -6.8%; Serum Chol. (% dec. vs. OVX) ([3]; 0.01 mg/kg oral): 44.4%; Serum Chol. (% dec. vs. OVX) ([3]; 1 mg/kg oral): 35.4% and 54.2%; Serum Chol. (% dec. vs. OVX) ([3]; 10 mg/kg oral): 35.4% and 42.2%; Serum Chol. (% dec. vs. OVX) ([3]; 25 mg/kg oral): 19.7%
Oc1ccc(-c2ccc(-c3ccc(F)cc3)nc2-c2ccc(OCCN3CCCCC3)cc2)cc1 [Example 12, 2-[4-[2-(1-Piperidinyl)ethoxy]phenyl]-3-(4-hydroxyphenyl)-6-(4-fluorophenyl)pyridine]					185 nM	5.9	67.9	9.8%	76.2%	68%	26.2%		49.9%			4.2%	
Oc1ccc(-c2ccc(-c3ccc(O)cc3)c(-c3ccc(OCCN4CCCC4)cc3)n2)cc1 [Example 14, 2-[4-[2-(1-Pyrrolidinyl)ethoxy]phenyl]-3,6-bis(4-hydroxyphenyl)pyridine]					9 nM	2.4		6.3%	8.8%		11.9%	-16.5%		> 10 mg/kg	-7.3%	-3.3%	Uterine EPO (V. max) ([4]; 1 mg/kg oral): 4.5; Uterine EPO (V. max) ([4]; 10 mg/kg oral): 4.2
